Assay results: patent US12240838B2, “Inhibiting agents for Bruton's tyrosine kinase” (BIOGEN MA INC., priority 2019, dated 2025)

Tests used:
[1] = target: T1, BTK (Homo sapiens (Human), UniProt Q06187); assay: In Vitro BTK Kinase Assay: BTK-POLYGAT-LS ASSAY; type: biochemical; settings: ATP 10 μM, polyGAT 100 nM, BTK 0.25 nM, 30 minutes
Summary of the method: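 BTK (0.25 nM final) with 10 μM ATP and 100 nM polyGAT in pH 7.5 Tris buffer with MgCl2, DTT, Triton X-100 and casein; compound titrated 4-fold. Reaction 30 min, stopped with EDTA. Phosphorylation detected by TR-FRET with Tb-PY20 antibody after 45 min at room temperature; IC50 reported.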

[2] = target: T1, BTK; assay: In Vitro PD Assay in Human Whole Blood (pBTK assay); type: cell-based; settings: 37° C. for 30 min, 50% inhibition of ECL signal
Summary of the method: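 Phospho-BTK was measured by total-BTK capture and phosphotyrosine detection in lysates of human heparinized whole blood. Vehicle samples lysed with or without phosphatase inhibitors defined the high and low controls.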

T1 sequence (Q06187 whole entry): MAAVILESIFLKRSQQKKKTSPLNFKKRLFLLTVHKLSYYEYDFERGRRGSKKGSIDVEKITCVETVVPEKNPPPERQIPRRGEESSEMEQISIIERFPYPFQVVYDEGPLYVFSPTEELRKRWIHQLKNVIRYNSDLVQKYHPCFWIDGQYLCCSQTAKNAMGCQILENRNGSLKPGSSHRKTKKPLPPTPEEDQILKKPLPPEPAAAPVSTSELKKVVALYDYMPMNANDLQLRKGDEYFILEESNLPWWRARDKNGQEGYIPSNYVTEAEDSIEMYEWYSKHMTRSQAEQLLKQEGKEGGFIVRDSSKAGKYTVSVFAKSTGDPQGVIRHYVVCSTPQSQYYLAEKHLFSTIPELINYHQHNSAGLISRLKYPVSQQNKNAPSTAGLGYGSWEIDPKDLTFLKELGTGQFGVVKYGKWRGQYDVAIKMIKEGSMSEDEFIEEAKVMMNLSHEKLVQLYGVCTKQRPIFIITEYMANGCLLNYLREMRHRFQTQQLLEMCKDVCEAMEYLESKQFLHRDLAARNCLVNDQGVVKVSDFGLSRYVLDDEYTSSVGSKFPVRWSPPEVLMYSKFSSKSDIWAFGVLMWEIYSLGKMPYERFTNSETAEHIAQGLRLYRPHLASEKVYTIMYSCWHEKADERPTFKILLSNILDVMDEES

Which IC50 [1] does the source give for `CCc1cc(-c2ccnc(NC(=O)C3CC3)c2)ccc1CNC(=O)c1noc(C(C)(C)C)n1` [Compound 73, 5-(tert-butyl)-N-(4-(2-(cyclopropanecarboxamido)pyridin-4-yl)-2-ethylbenzyl)-1,2,4-oxadiazole-3-carboxamide] here?
Its IC50 is no more than 0.001 µM.

What about the IC50 [2] of the same molecule?
Its IC50 is 0.5 to 10 µM.

What does the source list for `C[C@@H](NC(=O)c1noc(C(C)(C)C)n1)c1cc(F)c(-c2ccnc(NC(=O)C3CC3)c2)cc1Cl` [Compound 76, (R)-5-(tert-butyl)-N-(1-(2-chloro-4-(2-(cyclopropanecarboxamido)pyridin-4-yl)-5-fluorophenyl)ethyl)-1,2,4-oxadiazole-3-carboxamide]?
IC50 [1]: ≤ 0.001 µM; IC50 [2]: 0.5 to 10 µM

With `CC(C)(C)c1nc(C(=O)NCc2ccc(-c3ccnc(NC(=O)C4CC4)c3)cc2C2CC2)no1` [Compound 77, 5-(tert-butyl)-N-(4-(2-(cyclopropanecarboxamido)pyridin-4-yl)-2-cyclopropylbenzyl)-1,2,4-oxadiazole-3-carboxamide] as the molecule, how does the IC50 [1] read?
Its IC50 is no more than 0.001 µM.

And the IC50 [2]?
Its IC50 is 0.1 to 0.5 µM.

With `C[C@@H](NC(=O)c1noc(C(C)(C)C)n1)c1ccc(-c2ccnc(NC(=O)C3CC3)c2)cc1C(F)(F)F` [Compound 78, (R)-5-(tert-butyl)-N-(1-(4-(2-(cyclopropanecarboxamido)pyridin-4-yl)-2-(trifluoromethyl)phenyl)ethyl)-1,2,4-oxadiazole-3-carboxamide] as the molecule, how does the IC50 [1] read?
Its IC50 is no more than 0.001 µM.

And the IC50 [2]?
Its IC50 is 0.1 to 0.5 µM.

Which IC50 [1] does the source give for `C[C@@H](NC(=O)c1nc(C(C)(C)C)no1)c1ccc(-c2ccnc(NC(=O)C3CC3)c2)cc1C(F)(F)F` [Compound 79, (R)-3-(tert-butyl)-N-(1-(4-(2-(cyclopropanecarboxamido)pyridin-4-yl)-2-(trifluoromethyl)phenyl)ethyl)-1,2,4-oxadiazole-5-carboxamide] here?
Its IC50 is no more than 0.001 µM.

And the IC50 [2]?
The IC50 was 0.1 to 0.5 µM.

How did the IC50 [1] turn out when `CC(C)(C)c1noc(C(=O)NCc2ccc(-c3ccnc(NC(=O)C4CC4)c3)cc2OC(F)(F)F)n1` [Compound 80, 3-(tert-butyl)-N-(4-(2-(cyclopropanecarboxamido)pyridin-4-yl)-2-(trifluoromethoxy)benzyl)-1,2,4-oxadiazole-5-carboxamide] was run?
The IC50 was no more than 0.001 µM.

And the IC50 [2]?
The IC50 was 0.5 to 10 µM.

What does the source list for `Cc1cc(-c2ccnc(NC(=O)C3CC3)c2)ccc1CNC(=O)c1cnc(C(C)(C)C)s1` [Compound 81, 2-(tert-butyl)-N-(4-(2-(cyclopropanecarboxamido)pyridin-4-yl)-2-methylbenzyl)thiazole-5-carboxamide]?
IC50 [1]: 0.001 to 0.01 µM; IC50 [2]: 0.5 to 10 µM

For `Cc1cc(-c2ccnc(NC(=O)C3(F)CC3)c2)ccc1CNC(=O)c1noc(C(C)(C)C)n1` [Compound 82, 5-(tert-butyl)-N-(4-(2-(1-fluorocyclopropane-1-carboxamido)pyridin-4-yl)-2-methylbenzyl)-1,2,4-oxadiazole-3-carboxamide], which IC50 [1] is on record?
The IC50 was 0.001 to 0.01 µM.

And the IC50 [2]?
The IC50 was 0.5 to 10 µM.

With `C[C@@H](NC(=O)c1noc(C(C)(C)C)n1)c1ccc(-c2ccnc(NC(=O)C3CC3)c2)cc1OC(F)(F)F` [Compound 83, (R)-5-(tert-butyl)-N-(1-(4-(2-(cyclopropanecarboxamido)pyridin-4-yl)-2-(trifluoromethoxy)phenyl)ethyl)-1,2,4-oxadiazole-3-carboxamide] as the molecule, how does the IC50 [1] read?
The IC50 was 0.001 to 0.01 µM.

And the IC50 [2]?
The IC50 was 0.5 to 10 µM.

With `Cc1c(CNC(=O)c2noc(C(C)(C)C)n2)ccc(-c2ccnc(NC(=O)C3CC3)c2)c1Cl` [Compound 84, 5-(tert-butyl)-N-(3-chloro-4-(2-(cyclopropanecarboxamido)pyridin-4-yl)-2-methylbenzyl)-1,2,4-oxadiazole-3-carboxamide] as the molecule, how does the IC50 [1] read?
The IC50 was no more than 0.001 µM.

And the IC50 [2]?
Its IC50 is 0.1 to 0.5 µM.

For `Cc1cc(-c2ccnc(NC(=O)C3CC3)c2)ccc1CNC(=O)c1cn(C(C)(C)C)nn1` [Compound 89, 1-(tert-butyl)-N-(4-(2-(cyclopropanecarboxamido)pyridin-4-yl)-2-methylbenzyl)-1H-1,2,3-triazole-4-carboxamide], which IC50 [1] is on record?
The IC50 was 0.001 to 0.01 µM.

What about the IC50 [2] of the same molecule?
Its IC50 is 0.1 to 0.5 µM.

`Cc1cc(-c2ccnc(NC(=O)C3CC3)c2)ccc1CNC(=O)c1nnc(C(C)(C)C)o1` [Compound 90, 5-(tert-butyl)-N-(4-(2-(cyclopropanecarboxamido)pyridin-4-yl)-2-methylbenzyl)-1,3,4-oxadiazole-2-carboxamide] was tested. Which IC50 [1] did it give?
The IC50 was 0.001 to 0.01 µM.

And the IC50 [2]?
The IC50 was 0.1 to 0.5 µM.

What does the source list for `C[C@@H](NC(=O)c1nc(C(C)(C)C)no1)c1ccc(-c2ccnc(NC(=O)C3CC3)c2)cc1Cl` [Compound 91, (R)-3-(tert-butyl)-N-(1-(2-chloro-4-(2-(cyclopropanecarboxamido)pyridin-4-yl)phenyl)ethyl)-1,2,4-oxadiazole-5-carboxamide]?
IC50 [1]: ≤ 0.001 µM; IC50 [2]: 0.1 to 0.5 µM

Which results are given for `CC(C)(C)c1noc(C(=O)N[C@@H]2CCN(CC(F)(F)F)Cc3cc(-c4ccnc(NC(=O)C5CC5)c4)ccc32)n1` [Compound 92, (R)-3-(tert-butyl)-N-(8-(2-(cyclopropanecarboxamido)pyridin-4-yl)-2-(2,2,2-trifluoroethyl)-2,3,4,5-tetrahydro-1H-benzo[c]azepin-5-yl)-1,2,4-oxadiazole-5-carboxamide]?
IC50 [1]: ≤ 0.001 µM; IC50 [2]: 0.1 to 0.5 µM

`Cc1cc(-c2ccnc(NC(=O)C3CC3)c2)ccc1[C@@H](C)NC(=O)c1nc(C(C)(C)C)no1` [Compound 93, (R)-3-(tert-butyl)-N-(1-(4-(2-(cyclopropanecarboxamido)pyridin-4-yl)-2-methylphenyl)ethyl)-1,2,4-oxadiazole-5-carboxamide] was tested. Which IC50 [1] did it give?
The IC50 was no more than 0.001 µM.

And the IC50 [2]?
Its IC50 is 0.1 to 0.5 µM.

`Cc1c(CNC(=O)c2nc(C(C)(C)C)no2)ccc(-c2ccnc(NC(=O)C3CC3)c2)c1F` [Compound 94, 3-(tert-butyl)-N-(4-(2-(cyclopropanecarboxamido)pyridin-4-yl)-3-fluoro-2-methylbenzyl)-1,2,4-oxadiazole-5-carboxamide] was tested. Which IC50 [1] did it give?
Its IC50 is no more than 0.001 µM.

What about the IC50 [2] of the same molecule?
The IC50 was no more than 0.1 µM.

How did the IC50 [1] turn out when `Cc1cc(-c2ccnc(NC(=O)C3CC3)c2)ccc1CNC(=O)c1ncc(C(C)(C)C)o1` [Compound 98, 5-(tert-butyl)-N-(4-(2-(cyclopropanecarboxamido)pyridin-4-yl)-2-methylbenzyl)oxazole-2-carboxamide] was run?
Its IC50 is 0.001 to 0.01 µM.

And the IC50 [2]?
The IC50 was 0.5 to 10 µM.

Which results are given for `Cc1cc(-c2ccnc(NC(=O)C3CC3)c2)ccc1CNC(=O)c1ccn(C(C)(C)C)n1` [Compound 99, 1-(tert-butyl)-N-(4-(2-(cyclopropanecarboxamido)pyridin-4-yl)-2-methylbenzyl)-1H-pyrazole-3-carboxamide]?
IC50 [1]: 0.001 to 0.01 µM; IC50 [2]: 0.5 to 10 µM

For `Cc1c(-c2ccnc(NC(=O)C3CC3)c2)ccc(CNC(=O)c2nc(C(C)(C)C)no2)c1F` [Compound 100, 3-(tert-butyl)-N-(4-(2-(cyclopropanecarboxamido)pyridin-4-yl)-2-fluoro-3-methylbenzyl)-1,2,4-oxadiazole-5-carboxamide], which IC50 [1] is on record?
Its IC50 is no more than 0.001 µM.

And the IC50 [2]?
Its IC50 is 0.5 to 10 µM.

`Cc1c(-c2ccnc(NC(=O)C3CC3)c2)ccc(CNC(=O)c2noc(C(C)(C)C)n2)c1F` [Compound 101, 5-(tert-butyl)-N-(4-(2-(cyclopropanecarboxamido)pyridin-4-yl)-2-fluoro-3-methylbenzyl)-1,2,4-oxadiazole-3-carboxamide] was tested. Which IC50 [1] did it give?
Its IC50 is no more than 0.001 µM.

And the IC50 [2]?
The IC50 was 0.5 to 10 µM.

For `Cc1cc(CNC(=O)c2noc(C(C)(C)C)n2)c(F)cc1-c1ccnc(NC(=O)C2CC2)c1` [Compound 102, 5-(tert-butyl)-N-(4-(2-(cyclopropanecarboxamido)pyridin-4-yl)-2-fluoro-5-methylbenzyl)-1,2,4-oxadiazole-3-carboxamide], which IC50 [1] is on record?
Its IC50 is 0.01 to 1 µM.

What about the IC50 [2] of the same molecule?
The IC50 was 0.5 to 10 µM.

With `Cc1cc(-c2cc(NC(=O)C3CC3)ncc2F)c(F)cc1CNC(=O)c1noc(C(C)(C)C)n1` [Compound 103, 5-(tert-butyl)-N-(4-(2-(cyclopropanecarboxamido)5-fluoropyridin-4-yl)-5-fluoro-2-methylbenzyl)-1,2,4-oxadiazole-3-carboxamide] as the molecule, how does the IC50 [1] read?
Its IC50 is no more than 0.001 µM.

What about the IC50 [2] of the same molecule?
The IC50 was 0.1 to 0.5 µM.

Which IC50 [1] does the source give for `CC(C)(C)c1nc(C(=O)NCc2cc(F)c(-c3ccnc(NC(=O)C4CC4)c3)cc2Cl)no1` [Compound 104, 5-(tert-butyl)-N-(2-chloro-4-(2-(cyclopropanecarboxamido)pyridin-4-yl)-5-fluorobenzyl)-1,2,4-oxadiazole-3-carboxamide] here?
The IC50 was no more than 0.001 µM.

What about the IC50 [2] of the same molecule?
The IC50 was 0.1 to 0.5 µM.

Which IC50 [1] does the source give for `Cc1cc(-c2cc(NC(=O)C3CC3)ncc2F)ccc1CNC(=O)c1noc(C(C)(C)C)n1` [Compound 106, 5-(tert-butyl)-N-(4-(2-(cyclopropanecarboxamido)5-fluoropyridin-4-yl)-2-methylbenzyl)-1,2,4-oxadiazole-3-carboxamide] here?
The IC50 was no more than 0.001 µM.

What about the IC50 [2] of the same molecule?
The IC50 was 0.5 to 10 µM.

With `CC(C)(C)c1nc(C(=O)NCc2ccc(-c3ccnc(NC(=O)C4CC4)c3)cc2OC(F)(F)F)no1` [Compound 107, 5-(tert-butyl)-N-(4-(2-(cyclopropanecarboxamido)pyridin-4-yl)-2-(trifluoromethoxy)benzyl)-1,2,4-oxadiazole-3-carboxamide] as the molecule, how does the IC50 [1] read?
The IC50 was no more than 0.001 µM.

What about the IC50 [2] of the same molecule?
The IC50 was no more than 0.1 µM.
